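GI50 marks 50% less growth. TGI denotes the concentration required for complete inhibition of growth.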
How the values were obtained:
Assay in all cases: inhibition of tumour cell growth, NCI panel, 384-well format
[1] = test system: NCI-H522 lung
[2] = test system: SNB-19 CNS
[3] = test system: OVCAR-3 ovarian
[4] = test system: DU-145 prostate
[5] = test system: CAKI-1 renal
[6] = test system: NCI/ADR-RES ovarian
[7] = test system: EKVX NSCLC
[8] = test system: SK-MEL-28 melanoma
[9] = test system: HCC-2998 colon
[10] = test system: ACHN renal
[11] = test system: A549 NSCLC
[12] = test system: HCT-116 colon
[13] = test system: COLO 205 colon
[14] = test system: SK-MEL-5 melanoma
[15] = test system: MCF7 breast
[16] = test system: UACC-62 melanoma
[17] = test system: RPMI-8226 leukemia
[18] = test system: M14 melanoma
[19] = test system: HS 578T breast
[20] = test system: SN12C renal
[21] = test system: HOP-62 NSCLC
[22] = test system: MDA-MB-231 breast
[23] = test system: HOP-92 NSCLC
[24] = test system: HCT-15 colon
[25] = test system: T-47D breast
[26] = test system: HL-60(TB) leukemia
[27] = test system: NCI-H460 NSCLC
[28] = test system: SNB-75 CNS
[29] = test system: MOLT-4 leukemia
[30] = test system: MDA-MB-435 melanoma
[31] = test system: OVCAR-4 ovarian
[32] = test system: HT29 colon
[33] = test system: RXF 393 renal
[34] = test system: A498 renal
[35] = test system: IGROV1 ovarian
[36] = test system: U251 glioblastoma
[37] = test system: SK-OV-3 ovarian
[38] = test system: LOX IMVI melanoma
[39] = test system: NCI-H226 lung
[40] = test system: PC-3 prostate
[41] = test system: SR leukemia
[42] = test system: BT-549 breast
[43] = test system: MDA-MB-468 breast
[44] = test system: TK-10 renal
[45] = test system: SF-539 CNS
[46] = test system: KM12 colon
[47] = test system: NCI-H322M lung
[48] = test system: UACC-257 melanoma
[49] = test system: SF-268 CNS

Compound `N#CCCNc1nonc1-c1nc2ccccc2n1CC(=O)c1ccc(N)cc1` has a GI50 [1] of less than 10 nM, a TGI [1] of less than 10 nM and a GI50 [2] of less than 10 nM. For the same compound, the TGI [2] was 92 nM, the GI50 [3] was less than 10 nM and the TGI [3] was 14 nM. For the same compound, the GI50 [4] was 20.8 nM, the TGI [4] was 47.4 nM and the GI50 [5] was less than 10 nM. The TGI [5] was greater than 100000 nM, the GI50 [6] was less than 10 nM and the TGI [6] was less than 10 nM. It also gave a GI50 [7] of less than 10 nM, a TGI [7] greater than 100000 nM and a GI50 [8] of 101 nM. It also gave a TGI [8] greater than 100000 nM, a GI50 [9] of 15 nM and a TGI [9] of 47.5 nM. The GI50 [10] was less than 10 nM, the TGI [10] was 37300 nM and the GI50 [11] was 22.7 nM. It also gave a TGI [11] greater than 100000 nM, a GI50 [12] of less than 10 nM and a TGI [12] greater than 100000 nM. The GI50 [13] was 20.7 nM, the TGI [13] was 56.6 nM and the GI50 [14] was less than 10 nM. For the same compound, the TGI [14] was 17 nM, the GI50 [15] was less than 10 nM and the TGI [15] was greater than 100000 nM. For the same compound, the GI50 [16] was less than 10 nM, the TGI [16] was greater than 100000 nM and the GI50 [17] was less than 10 nM. The TGI [17] was 22.2 nM, the GI50 [18] was less than 10 nM and the TGI [18] was 21 nM. It also gave a GI50 [19] of less than 10 nM, a TGI [19] of 11.4 nM and a GI50 [20] of 12.2 nM. For the same compound, the TGI [20] was 88.2 nM, the GI50 [21] was less than 10 nM and the TGI [21] was 503 nM. For the same compound, the GI50 [22] was 59 nM, the TGI [22] was greater than 100000 nM and the GI50 [23] was 30.5 nM. It also gave a TGI [23] greater than 100000 nM, a GI50 [24] of 16.7 nM and a TGI [24] of 48.6 nM. It also gave a GI50 [25] of 1870 nM, a TGI [25] greater than 100000 nM and a GI50 [26] of less than 10 nM. It also gave a TGI [26] of 16 nM, a GI50 [27] of less than 10 nM and a TGI [27] of 20 nM. The GI50 [28] was 12 nM, the TGI [28] was greater than 100000 nM and the GI50 [29] was 19.2 nM. It also gave a TGI [29] of 33.7 nM, a GI50 [30] of less than 10 nM and a TGI [30] of less than 10 nM. The GI50 [31] was less than 10 nM, the TGI [31] was 2330 nM and the GI50 [32] was 21 nM. For the same compound, the TGI [32] was greater than 100000 nM, the GI50 [33] was less than 10 nM and the TGI [33] was 10300 nM. For the same compound, the GI50 [34] was less than 10 nM, the TGI [34] was 36.5 nM and the GI50 [35] was 19.5 nM. It also gave a TGI [35] of 39300 nM, a GI50 [36] of less than 10 nM and a TGI [36] of 40.7 nM. It also gave a GI50 [37] of less than 10 nM, a TGI [37] greater than 100000 nM and a GI50 [38] of 19 nM. It also gave a TGI [38] of 44.2 nM, a GI50 [39] of less than 10 nM and a TGI [39] of 22.8 nM. The GI50 [40] was 15.9 nM, the TGI [40] was greater than 100000 nM and the GI50 [41] was less than 10 nM. For the same compound, the TGI [41] was less than 10 nM, the GI50 [42] was less than 10 nM and the TGI [42] was 35 nM. It also gave a GI50 [43] of less than 10 nM, a TGI [43] of less than 10 nM and a GI50 [44] of less than 10 nM. For the same compound, the TGI [44] was greater than 100000 nM, the GI50 [45] was less than 10 nM and the TGI [45] was 25.7 nM. For the same compound, the GI50 [46] was less than 10 nM, the TGI [46] was greater than 100000 nM and the GI50 [47] was 53.1 nM. The TGI [47] was greater than 100000 nM, the GI50 [48] was less than 10 nM and the TGI [48] was greater than 100000 nM. The GI50 [49] was less than 10 nM and the TGI [49] was 51100 nM.
